From patent publication US20160075682A1, “INHIBITORS OF NICOTINAMIDE PHOSPHORIBOSYLTRANSFERASE, COMPOSITIONS, PRODUCTS AND USES THEREOF” (UNIVERSITÀ DEGLI STUDI DEL PIEMONTE ORIENTALE "AMEDEO …, priority 2013, published 2016)

What was measured:
SH-SY5Y, HeLa = assay: MTT cell proliferation assay and trypan blue count (cell viability); type: cell-based; conditions: cells treated for 48 and 72 hours; read-out: IC50 values (inhibition of cellular proliferation, MTT assay and trypan blue assay)
Procedure: Cell based assays were used to evaluate the possible cytotoxic effects of some compounds. To measure cytotoxic effects two different methods were used, a MTT cell proliferation assay and trypan blue count.
The Trypan blue assay is used to determine the number of viable cells present in a cell suspension. […] Briefly, 8×10^5 cells (SH-SY5Y, HeLa; obtained from ATCC, LGC standards, Sesto San Giovanni) were seeded in 24-well plates and treated for 48 and 72 hours. After the treatments, cells were stained with trypan blue and counted.
To analyze cell viability was used the colorimetric 3-(4,5-dimethylthiazol-2-yl)-2,5-diphenyltetrazolium bromide (MTT) method. The assay is based on the cleavage of the yellow tetrazolium salt MTT to purple formazan crystals by metabolic active cells. Since reduction of MTT can only occur in metabolically active cells, the level of activity is a measure of the viability of cells and conversely the cytotoxic effects of various treatments. Briefly, 8×10^5 cells (SH-SY5Y, code number CRL-2266; and HeLa, code number CCL-2) were seeded in 24-well plates and treated for 48 and 72 hours. Compounds were dissolved in DMSO and were added to the cells to give a final DMSO concentration no greater than 0.5%. Cells were washed once in Locke buffer and 300 μl of MTT (250 μg/ml in Locke buffer) were added before returning the cells to the incubator for 1 h to allow the formation of the purple formazan crystals. After 1 h, 600 μl of isopropanol/0.1 M HCl were added to each well, and the absorbance was read at 570 nm in a plate reader (Victor3V, PerkinElmer Life Sciences). For some compounds a dose response curve and IC50 for the effects on cell viability and proliferation were calculated. Cell lines used were originally purchased from ATCC (LGC standards. Sesto San Giovanni).
To evaluate the ability of each compound to inhibit cellular proliferation, cells were seeded in 24-well plates and treated for 48 and 72 hours. After the treatments the MTT assay and trypan blue assay were performed.

[1] = Microsomal stability with rat liver microsomes; type: in vitro ADME, Male Wistar rat; conditions: 50 μM substrate, 1.0 mg/mL protein, 60 minutes at 37° C., pH 7.4
Procedure: (§1) Male Wistar rat liver microsomes (RLM), (protein concentration: 25 mg/ml determined using the Omura and Sato method, total P450: 0.64 nmol/mg protein) were used throughout this study and prepared using an internal protocol. The cryopreserved pooled human liver microsomes (HLM), (pooled mixed sex, ten individual donors, protein concentration: 20 mg/ml, total P450: 0.36 nmol/mg) were purchased from BD Gentest™ (Woburn, Mass.) and used throughout this study.
(§2) The standard incubation mixture (1 ml final volume), was carried out in a 50 mM TRIS (Tris[hydroxymethyl]aminomethane) buffer (pH 7.4) containing 10 μl of acetonitrile (1% of total volume), and 50 μM substrate compounds. After pre-equilibration of the mixture, an appropriate volume of RLM or HLM suspension was added to give a final protein concentration of 1.0 mg/mL. The mixture was shaken for 60 minutes at 37° C. Control incubations were carried out without microsomes. Each incubation was stopped by addition of 1 ml ice-cold acetonitrile, vortexed and centrifuged at 11,000 r.p.m. for 5 min. The supernatants were analysed by LC-DAD-UV and LC-ESI-MS systems to determine the metabolic stability (% substrate residue) and the structure of metabolites respectively (Table 1).
(§3) A Shimadzu HPLC system (Shimadzu, Kyoto, Japan), consisting of two LC-10AD Vp module pumps, an SLC-10A Vp system controller, an SIL-10AD Vp autosampler, and a DGU-14-A on-line degasser were used for the analysis. Chromatographic separation was performed on a Phenomenex Luna C18(2) 150×4.6 mm (5 μm) (Phenomenex srl, Castel Bolognese, Italy) as a stationary phase protected by a C18 SecurityGuard (Phenomenex srl, Castel Bolognese, Italy). The SPD-M10Avp photodiode array detector was used to detect the analytes. LC-Solution 1.24 software was used to process the chromatograms. Aliquots (20 μL) of supernatants obtained from incubations were injected onto the HPLC system and eluted with a mobile phase (flow rate 1.0 mL/min) consisting of a A: 0.5% formic acid solution, B: acetonitrile/methanol 8:2. A Thermo Finningan LCQ Deca XP plus system equipped with a quaternary pump, a Surveyor AS autosampler, a Surveyor photodiode array detector and a vacuum degasser was used for LC/MS analyses (Thermo Electron Corporation, Waltham, Mass.). All the chromatographic separations were performed on a Phenomenex Luna C18(2)150×2 mm (4 μm) (kept at a 35° C.) as a stationary phase protected by a C18 SecurityGuard (Phenomenex srl, Castel Bolognese, Italy). Aliquots (2.0 μl) of supernatants obtained from incubations were injected onto the system and eluted with a mobile phase (flow rate 0.2 ml/min) consisting of a A: 0.2% formic acid solution, B: acetonitrile/methanol 8:2. The eluate was injected into the electrospray ion source (ESI) and MS and MS^n spectra were acquired and processed using Xcalibur® software. The operating conditions on the ion trap mass spectrometer were as follows: Positive mode, spray voltage, 5.30 kV; source current, 80 μA; capillary temperature, 350° C.; capillary voltage, 21.00 V; tube lens offset, 15.00 V; multipole 1 offset, −5.75 V; multipole 2 offset, −9.00 V; sheath gas flow (N2), 55 Auxiliary Units.

[2] = Microsomal stability with human liver microsomes; type: in vitro ADME; conditions: 50 μM substrate, 1.0 mg/mL protein, 60 minutes at 37° C., pH 7.4
Procedure: as §1, §2, §3

[3] = Metabolites generated from hydrolyses in RLM or HLM incubations (LC-ESI-MS); type: in vitro ADME, rat, human; conditions: RLM or HLM incubation, 60 minutes at 37° C.
Procedure: as §1, §2, §3

NAMPT = molecular target: T1, NAMPT (Homo sapiens, UniProt P43490); assay: Direct inhibition of NAMPT enzymatic activity (Cyclex NAMPT colorimetric Assay Kit); type: biochemical; conditions: as assessed with a cycling assay
T1 construct: endogenous in cells; host or cells: SH-SY5Y and HeLa
T1 sequence (P43490 whole entry): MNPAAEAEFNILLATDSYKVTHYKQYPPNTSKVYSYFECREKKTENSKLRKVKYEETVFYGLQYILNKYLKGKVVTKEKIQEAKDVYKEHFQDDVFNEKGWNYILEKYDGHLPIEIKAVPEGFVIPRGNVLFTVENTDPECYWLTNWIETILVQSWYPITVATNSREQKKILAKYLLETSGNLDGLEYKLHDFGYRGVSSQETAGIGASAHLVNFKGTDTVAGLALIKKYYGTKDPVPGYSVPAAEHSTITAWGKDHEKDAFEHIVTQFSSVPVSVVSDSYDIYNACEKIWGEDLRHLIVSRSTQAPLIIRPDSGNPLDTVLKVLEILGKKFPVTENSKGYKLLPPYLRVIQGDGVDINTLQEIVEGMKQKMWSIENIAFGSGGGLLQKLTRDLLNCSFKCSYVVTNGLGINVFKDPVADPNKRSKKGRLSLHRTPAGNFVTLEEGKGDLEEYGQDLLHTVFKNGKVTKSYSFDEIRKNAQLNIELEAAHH
Procedure: Determination of the direct activity of compounds on NAMPT was performed using a commercial kit, Cyclex NAMPT colorimetric Assay Kit.

Row | Structure (SMILES) | IC50 (SH-SY5Y, HeLa) | RLM stability % substrate residue (area peak) [1] | HLM stability % substrate residue (area peak) [2] | Metabolites generated from hydrolyses [3] | inhibition of the enzymatic activity of NAMPT (NAMPT) | melting point
1 | O=C(NCCCCCCCn1cc(-c2cccnc2)nn1)c1ccccc1-c1cccnc1 [2-(pyridin-3-yl)-N-(7-(4-(pyridin-3-yl)-1H-1,2,3-triazol-1-yl)heptyl)benzamide] | < 300 nM | >99% | >96% | no | able to inhibit | –
2 | c1ccc(-c2ccccc2-c2cn(CCCCCCCn3cc(-c4cccnc4)nn3)nn2)cc1 [3-(1-(7-(4-([1,1′-byphenyl]-2-yl)-1H-1,2,3-triazol-1-yl)heptyl)-1H-1,2,3-triazol-4-yl)pyridine] | < 300 nM | >99% | >99% | no | – | –
3 | c1ccc(-c2ccccc2OCCCCCCCCn2cc(-c3cccnc3)nn2)cc1 [3-(1-(8-([1,1′-biphenyl]-2-yloxy)octyl)-1H-1,2,3-triazol-4-yl)pyridine] | < 300 nM | – | – | – | able to inhibit | –
4 | c1cncc(-c2cn(CCCCCCOc3ccccc3-c3cccnc3)nn2)c1 [3-(2-((6-(4-(pyridin-3-yl)-1H-1,2,3-triazol-1-yl)hexyl)oxy)phenyl)pyridine] | < 300 nM | >95% | >99% | no | able to inhibit | –
5 | O=C(Nc1ccccc1-c1ccccc1)OCCCCCCn1cc(-c2cccnc2)nn1 [6-(4-(pyridin-3-yl)-1H-1,2,3-triazol-1-yl)hexyl[1,1′-biphenyl]-2-ylcarbamate] | < 300 nM | – | – | – | able to inhibit | –
6 | O=C(Nc1ccccc1-c1ccccc1)OCCCCCCCn1cc(-c2cccnc2)nn1 [7-(4-(pyridin-3-yl)-1H-1,2,3-triazol-1-yl)heptyl[1,1′-biphenyl]-2-ylcarbamate] | < 300 nM | – | – | – | able to inhibit | –
7 | O=S(=O)(NCCCCCCCCn1cc(-c2cccnc2)nn1)c1ccccc1-c1ccccc1 [N-(8-(4-(pyridin-3-yl)-1H-1,2,3-triazol-1-yl)octyl) biphenyl-2-sulfonamide] | < 300 nM | >99% | >99% | no | – | –

More lines, now with the values ahead:

Row | IC50 (SH-SY5Y, HeLa) | RLM stability % substrate residue (area peak) [1] | HLM stability % substrate residue (area peak) [2] | Metabolites generated from hydrolyses [3] | inhibition of the enzymatic activity of NAMPT (NAMPT) | melting point | Structure (SMILES)
8 | < 300 nM | >99% | >99% | no | – | – | O=C(NCCc1ccc(Cn2cc(-c3cccnc3)nn2)cc1)Nc1ccccc1-c1ccccc1 [1-([1,1′-biphenyl]2-yl)-3-(4-((4-(pyridin-3-yl)-1H-1,2,3-triazol-1-yl)methyl)phenethyl)urea]
9 | < 300 nM | >95% | >98% | yes (traces) | able to inhibit | – | O=C(NCCCCCCCn1cc(-c2cccnc2)nn1)Nc1ccccc1-c1ccccc1 [1-([1,1′-biphenyl]-2-yl)-3-(7-(4-(pyridin-3-yl)-1H-1,2,3-triazol-1-yl)heptyl)urea]
10 | < 300 nM | >97% | >99% | no | – | – | c1ccc(-c2ccccc2OCCc2ccc(Cn3cc(-c4cccnc4)nn3)cc2)cc1 [3-(1-(4-(2-([1,1′-biphenyl]-2-yloxy)ethyl)benzyl)-1H-1,2,3-triazol-4-yl)pyridine]
11 | < 300 nM | >92% | >98% | no | – | 164 to 165 °C | c1ccc(-c2ccccc2OCCCc2ccc(-n3cc(-c4cccnc4)nn3)cc2)cc1 [3-(1-(4-(3-([1,1′-biphenyl]-2-yloxy)propyl)phenyl)-1H-1,2,3-triazol-4-yl)pyridine]
12 | < 300 nM | >99% | >98% | no | – | – | O=C(Nc1ccc(CCCn2cc(-c3cccnc3)nn2)cc1)c1ccccc1-c1ccccc1 [N-(4-(3-(4-(pyridin-3-yl)-1H-1,2,3-triazol-1-yl)propyl)phenyl)-[1,1′-biphenyl]-2-carboxamide]
13 | < 300 nM | >99% | >99% | no | – | – | O=C(NCCc1ccc(Cn2cc(-c3cccnc3)nn2)cc1)c1ccccc1-c1ccccc1 [N-(4-((4-(pyridin-3-yl)-1H-1,2,3-triazol-1-yl)methyl)phenethyl)[1,1′-biphenyl]-2-carboxamide]
14 | < 300 nM | – | – | – | able to inhibit | – | O=C(NCCCCCCn1cc(-c2cccnc2)nn1)c1ccccc1-c1ccccc1 [N-(6-(4-(pyridin-3-yl)-1H-1,2,3-triazol-1-yl)hexyl)-[1,1′-biphenyl]-2-carboxamide]
